[ ]: non-standard residue; d: D form. Aib = CC(C)(N)C(=O)O
System: primary human T-cells
Assay: Cytokine secretion on protein level in activated primary human T-cells (13-plex FACS / Luminex, supernatant)
Assay type: cell-based
In short: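 Cytokine protein in supernatant is read by multiplex FACS or Luminex. Tripeptide-treated HaCaT cells or blood-derived human T-cells are stimulated beforehand with PMA/Ionomycin or IFN-γ. The most relevant analytes are IL-1, IL-2, IL-6, IL-12p70, IL-17, IFN-γ and TNF-α, sampled 48 h and 72 h after stimulation.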

[1] = primary human T-cells stimulated with IFN-γ, substance 10^−9M
[2] = primary human T-cells stimulated with PBS, substance 10^−9M
[3] = primary human T-cells stimulated with PMA/Ionomycin, substance 10^−9M
[4] = primary human T-cells stimulated with IFN-γ, 10^−9M
[5] = primary human T-cells stimulated with PBS, 10^−9M
[6] = primary human T-cells stimulated with PMA/Ionomycin, 10^−9M

Substance: H-Phe-Pro-[Aib]-OH [Example 13]
- secretion / expression of pro-inflammatory cytokines (supernatant) (activated primary human T-cells): decreased expression
- immunomodulatory activity relative to MMF (cells activated with PMA/Ionomycin and IFN-γ, protein and gene level): higher
- IL-1 cytokine concentration [1]: 162.75 pg/mL
- IL-2 cytokine concentration [1]: 187.16 pg/mL
- IL-4 cytokine concentration [1]: 0 pg/mL
- IL-5 cytokine concentration [1]: 15.32 pg/mL
- IL-6 cytokine concentration [1]: 60.51 pg/mL
- IL-9 cytokine concentration [1]: 0 pg/mL
- IL-10 cytokine concentration [1]: 0 pg/mL
- IL-12p70 cytokine concentration [1]: 0 pg/mL
- IL-13 cytokine concentration [1]: 0 pg/mL
- IL-17 cytokine concentration [1]: 81.59 pg/mL
- IL-22 cytokine concentration [1]: 0 pg/mL
- TNF-α cytokine concentration [1]: 0 pg/mL
- IL-1 cytokine concentration [2]: 0 pg/mL
- IL-2 cytokine concentration [2]: 115.73 pg/mL
- IL-4 cytokine concentration [2]: 73.19 pg/mL
- IL-5 cytokine concentration [2]: 0 pg/mL
- IL-6 cytokine concentration [2]: 113.86 pg/mL
- IL-9 cytokine concentration [2]: 10.84 pg/mL
- IL-10 cytokine concentration [2]: 147.54 pg/mL
- IL-12p70 cytokine concentration [2]: 0 pg/mL
- IL-13 cytokine concentration [2]: 0 pg/mL
- IL-17 cytokine concentration [2]: 65.17 pg/mL
- IL-22 cytokine concentration [2]: 0 pg/mL
- INF-α cytokine concentration [2]: 0 pg/mL
- TNF-α cytokine concentration [2]: 50.36 pg/mL
- IL-1 cytokine concentration [3]: 558.46 pg/mL
- IL-2 cytokine concentration [3]: 2092.22 pg/mL
- IL-4 cytokine concentration [3]: 0 pg/mL
- IL-5 cytokine concentration [3]: 354.06 pg/mL
- IL-6 cytokine concentration [3]: 1185.87 pg/mL
- IL-9 cytokine concentration [3]: 248.66 pg/mL
- IL-10 cytokine concentration [3]: 872.88 pg/mL
- IL-12p70 cytokine concentration [3]: 0 pg/mL
- IL-13 cytokine concentration [3]: 1081.09 pg/mL
- IL-17 cytokine concentration [3]: 1069.51 pg/mL
- IL-22 cytokine concentration [3]: 0 pg/mL
- INF-α cytokine concentration [3]: 7456.27 pg/mL
- TNF-α cytokine concentration [3]: 2706.11 pg/mL

Substance: H-Lys-[dP]-Thr-OH [K(D)PT, reference compound]
- IL-1 cytokine concentration [4]: 335.73 pg/mL
- IL-2 cytokine concentration [4]: 79.24 pg/mL
- IL-4 cytokine concentration [4]: 184.31 pg/mL
- IL-5 cytokine concentration [4]: 249.7 pg/mL
- IL-6 cytokine concentration [4]: 93.02 pg/mL
- IL-9 cytokine concentration [4]: 93.74 pg/mL
- IL-10 cytokine concentration [4]: 169.54 pg/mL
- IL-12p70 cytokine concentration [4]: 895.95 pg/mL
- IL-13 cytokine concentration [4]: 72.09 pg/mL
- IL-17 cytokine concentration [4]: 204.05 pg/mL
- IL-22 cytokine concentration [4]: 22747.7 pg/mL
- TNF-α cytokine concentration [4]: 178.65 pg/mL
- IL-1 cytokine concentration [1]: 0 pg/mL
- IL-2 cytokine concentration [1]: 0 pg/mL
- IL-4 cytokine concentration [1]: 0 pg/mL
- IL-5 cytokine concentration [1]: 0 pg/mL
- IL-6 cytokine concentration [1]: 58.47 pg/mL
- IL-9 cytokine concentration [1]: 9.51 pg/mL
- IL-10 cytokine concentration [1]: 33.21 pg/mL
- IL-12 cytokine concentration [1]: 0 pg/mL
- IL-12p70 cytokine concentration [1]: 0 pg/mL
- IL-13 cytokine concentration [1]: 0 pg/mL
- IL-17 cytokine concentration [1]: 0 pg/mL
- IL-22 cytokine concentration [1]: 0 pg/mL
- TNF-α cytokine concentration [1]: 0 pg/mL
- IFN-γ cytokine concentration [5]: 610.05 pg/mL
- IL-1 cytokine concentration [5]: 268.37 pg/mL
- IL-2 cytokine concentration [5]: 435.34 pg/mL
- IL-4 cytokine concentration [5]: 136.29 pg/mL
- IL-5 cytokine concentration [5]: 0 pg/mL
- IL-6 cytokine concentration [5]: 92.39 pg/mL
- IL-9 cytokine concentration [5]: 102.2 pg/mL
- IL-10 cytokine concentration [5]: 126.13 pg/mL
- IL-12p70 cytokine concentration [5]: 114.67 pg/mL
- IL-13 cytokine concentration [5]: 80.48 pg/mL
- IL-17 cytokine concentration [5]: 182.45 pg/mL
- IL-22 cytokine concentration [5]: 0 pg/mL
- TNF-α cytokine concentration [5]: 160.25 pg/mL
- IFN-γ cytokine concentration [2]: 0 pg/mL
- IL-1 cytokine concentration [2]: 147.97 pg/mL
- IL-2 cytokine concentration [2]: 0 pg/mL
- IL-4 cytokine concentration [2]: 0 pg/mL
- IL-5 cytokine concentration [2]: 0 pg/mL
- IL-6 cytokine concentration [2]: 109.89 pg/mL
- IL-9 cytokine concentration [2]: 0 pg/mL
- IL-10 cytokine concentration [2]: 159.09 pg/mL
- IL-12 cytokine concentration [2]: 0 pg/mL
- IL-12p70 cytokine concentration [2]: 0 pg/mL
- IL-13 cytokine concentration [2]: 172.66 pg/mL
- IL-17 cytokine concentration [2]: 127.21 pg/mL
- IL-22 cytokine concentration [2]: 0 pg/mL
- INF-α cytokine concentration [2]: 0 pg/mL
- TNF-a cytokine concentration [2]: 65.47 pg/mL
- TNF-α cytokine concentration [2]: 65.47 pg/mL
- IFN-γ cytokine concentration [6]: 1854.29 pg/mL
- IL-1 cytokine concentration [6]: 69689.2 pg/mL
- IL-2 cytokine concentration [6]: 12000 pg/mL
- IL-4 cytokine concentration [6]: 235.78 pg/mL
- IL-5 cytokine concentration [6]: 173.34 pg/mL
- IL-6 cytokine concentration [6]: 2058.24 pg/mL
- IL-9 cytokine concentration [6]: 162.4 pg/mL
- IL-10 cytokine concentration [6]: 4936.79 pg/mL
- IL-12p70 cytokine concentration [6]: 1703.5 pg/mL
- IL-13 cytokine concentration [6]: 944.87 pg/mL
- IL-17 cytokine concentration [6]: 3116.43 pg/mL
- IL-22 cytokine concentration [6]: 24079 pg/mL
- TNF-α cytokine concentration [6]: 3600 pg/mL
- IFN-γ cytokine concentration [3]: 12070.4 pg/mL
- IL-1 cytokine concentration [3]: 594.38 pg/mL
- IL-2 cytokine concentration [3]: 3486.84 pg/mL
- IL-4 cytokine concentration [3]: 41.83 pg/mL
- IL-5 cytokine concentration [3]: 379.39 pg/mL
- IL-6 cytokine concentration [3]: 1535.49 pg/mL
- IL-9 cytokine concentration [3]: 332.07 pg/mL
- IL-10 cytokine concentration [3]: 877.54 pg/mL
- IL-12 cytokine concentration [3]: 0 pg/mL
- IL-12p70 cytokine concentration [3]: 0 pg/mL
- IL-13 cytokine concentration [3]: 1158.74 pg/mL
- IL-17 cytokine concentration [3]: 1808.01 pg/mL
- IL-22 cytokine concentration [3]: 0 pg/mL
- INF-α cytokine concentration [3]: 12070.42 pg/mL
- TNF-a cytokine concentration [3]: 3998.01 pg/mL
- TNF-α cytokine concentration [3]: 3998.01 pg/mL
